Target: Escherichia coli ParC/ParE tetramer protein (Escherichia coli, UniProt P0AFI2+P20083)
Test: E. coli ParC/ParE ATPase inhibition assay (malachite green phosphate detection)
Format: biochemical
Conditions: ATPase activity of ParE subunit of reconstituted ParC/ParE tetramer; 0.16 mM ATP; 24 hours at room temperature
From the text: The compounds of Formula (I) are of interest due to their antibacterial effects. The ability of the invention compounds disclosed herein to achieve an antibacterial effect may be evaluated with regard to their ability to inhibit the ParC enzyme of Escherichia coli using an assay based on the following protocol.
The assay utilizes the ATPase activity of the ParE subunit of reconstituted Escherichia coli ParC/ParE tetramer protein. Inhibition of ATPase activity may be monitored by reduced production of inorganic phosphate, a product of the ATPase reaction. Inorganic phosphate may be quantified using the ammonium molybdate/malachite green-based detection system. For determination of IC50 values, assays may be performed 384-well microtiter plates. Each well preferably contains a dilution range of the compound dissolved in DMSO. In addition, each well preferably contains: 20 mM Tris pH 8.0, 50 mM ammonium acetate, 0.16 mM ATP, 0.005% Brij-35, 8.0 mM magnesium chloride, 0.5 mM EDTA, 2.5% v/v glycerol, 5 mM dithiothreitol, 0.005 mg/mL sheared salmon sperm DNA, 0.5 nM E. coli ParC protein, 0.5 nM E. coli ParE protein. Final volume of assays is preferably 30 μL. Reactions may be incubated 24 hours at room temperature and then quenched with the addition of 45 μL malachite green reagent (Lanzetta, P. A., L. J. Alvarez, P. S. Reinach, and O. A. Candia (1979) Anal. Biochem. 100: 95-97) via a bulk reagent dispenser. Plates may be incubated 3-5 minutes at room temperature, and then absorbance at 650 nm may be measured using a Spectramax 384 plate reader.
When tested in an assay based on the one described above, the inhibitory activity of the following Examples was measured at the indicated IC50.

Sequence of Escherichia coli ParC/ParE tetramer protein (P20083 whole entry): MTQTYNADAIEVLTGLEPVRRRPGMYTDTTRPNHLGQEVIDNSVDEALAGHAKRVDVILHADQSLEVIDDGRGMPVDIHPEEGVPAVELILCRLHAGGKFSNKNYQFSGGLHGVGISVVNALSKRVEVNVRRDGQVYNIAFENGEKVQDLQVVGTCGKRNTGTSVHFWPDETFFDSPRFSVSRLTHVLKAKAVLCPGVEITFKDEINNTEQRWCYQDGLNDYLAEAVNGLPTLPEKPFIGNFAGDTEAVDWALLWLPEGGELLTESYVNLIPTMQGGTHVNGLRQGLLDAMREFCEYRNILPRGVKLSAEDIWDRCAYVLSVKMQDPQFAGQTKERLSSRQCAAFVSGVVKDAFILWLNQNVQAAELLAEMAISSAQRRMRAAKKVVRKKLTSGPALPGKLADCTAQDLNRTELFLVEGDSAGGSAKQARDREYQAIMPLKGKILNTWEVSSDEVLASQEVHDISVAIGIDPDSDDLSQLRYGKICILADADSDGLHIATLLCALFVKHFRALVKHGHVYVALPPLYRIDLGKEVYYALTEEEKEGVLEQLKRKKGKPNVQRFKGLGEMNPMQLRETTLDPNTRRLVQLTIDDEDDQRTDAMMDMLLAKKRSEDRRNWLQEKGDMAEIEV
Sequence of Escherichia coli ParC/ParE tetramer protein (P0AFI2 whole entry): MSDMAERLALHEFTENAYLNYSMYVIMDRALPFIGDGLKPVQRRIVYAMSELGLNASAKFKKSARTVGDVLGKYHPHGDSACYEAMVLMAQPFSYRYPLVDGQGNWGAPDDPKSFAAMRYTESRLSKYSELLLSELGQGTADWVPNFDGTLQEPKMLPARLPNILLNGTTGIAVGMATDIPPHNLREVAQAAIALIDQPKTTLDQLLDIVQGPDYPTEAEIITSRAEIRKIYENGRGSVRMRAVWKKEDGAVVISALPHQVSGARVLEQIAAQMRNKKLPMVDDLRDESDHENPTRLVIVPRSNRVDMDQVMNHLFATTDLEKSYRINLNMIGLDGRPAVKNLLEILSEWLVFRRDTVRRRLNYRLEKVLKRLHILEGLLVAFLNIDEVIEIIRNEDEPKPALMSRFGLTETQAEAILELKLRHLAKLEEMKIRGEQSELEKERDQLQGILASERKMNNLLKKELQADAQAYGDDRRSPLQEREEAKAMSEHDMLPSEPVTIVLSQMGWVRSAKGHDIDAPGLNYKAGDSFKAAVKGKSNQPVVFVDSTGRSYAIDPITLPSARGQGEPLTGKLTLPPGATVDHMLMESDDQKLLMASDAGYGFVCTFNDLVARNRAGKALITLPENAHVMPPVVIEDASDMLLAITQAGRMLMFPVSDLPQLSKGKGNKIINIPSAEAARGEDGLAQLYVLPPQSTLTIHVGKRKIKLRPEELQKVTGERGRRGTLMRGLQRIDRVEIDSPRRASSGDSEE

SMILES | IC50
COc1cnc2ccc(=O)n(CC(N)C3CCC(NCc4ccc5c(n4)NC(=O)CO5)CC3)c2c1 (racemic) [Example 1, Trans-6-((4-(1-amino-2-(7-methoxy-2-oxo-1,5-naphthyridin-1(2H)-yl)ethyl)cyclohexylamino)methyl)-2H-pyrido[3,2-b][1,4]oxazin-3(4H)-one] | 20 nM
N#Cc1ccc2ccc(=O)n(CC(N)C3CCC(NCc4ccc5c(n4)NC(=O)CO5)CC3)c2c1 (racemic) [Example 4, Trans-1-(2-amino-2-(4-((3-oxo-3,4-dihydro-2H-pyrido[3,2-b][1,4]oxazin-6-yl)methylamino)cyclohexyl)ethyl)-2-oxo-1,2-dihydroquinoline-7-carbonitrile] | 9 nM
N#Cc1ccc2ccc(=O)n(CC(N)C3CCC(NCc4ccc5c(n4)NC(=O)CS5)CC3)c2c1 (racemic) [Example 7, Trans-1-(2-amino-2-(4-((3-oxo-3,4-dihydro-2H-pyrido[3,2-b][1,4]thiazin-6-yl)methylamino)cyclohexyl)ethyl)-2-oxo-1,2-dihydroquinoline-7-carbonitrile] | 12 nM
COc1cnc2ccc(=O)n(CC(N)C3CCC(NCc4ncc5c(n4)NC(=O)CO5)CC3)c2c1 (racemic) [Example 8, Trans-2-((4-(1-amino-2-(7-methoxy-2-oxo-1,5-naphthyridin-1(2H)-yl)ethyl)cyclohexylamino)methyl)-6H-pyrimido[5,4-b][1,4]oxazin-7(8H)-one] | 17 nM
NC(Cn1c(=O)cnc2ccc(F)cc21)[C@H]1CC[C@H](NCc2ccc3c(n2)NC(=O)CO3)CC1 (single isomer, unassigned) [Example 5, Trans-6-((4-(1-amino-2-(7-fluoro-2-oxoquinoxalin-1(2H)-yl)ethyl)cyclohexylamino)methyl-2H-pyrido[3,2-b][1,4]oxazin-3(4H)-one, (+) enantiomer] | 24 nM
NC(Cn1c(=O)cnc2ccc(F)cc21)C1CCC(NCc2ncc3c(n2)NC(=O)CO3)CC1 (single isomer, unassigned) [Example 6, Trans-2-((4-(1-amino-2-(7-fluoro-2-oxoquinoxalin-1(2H)-yl)ethyl)cyclohexylamino)methyl-6H-pyrimido[5,4-b][1,4]oxazin-7(8H)-one, (+) enantiomer] | 15 nM
COc1cnc2ccc(=O)n(CC(N)[C@H]3CC[C@H](NCc4ccc5c(n4)NC(=O)CO5)CC3)c2c1 (single isomer, unassigned; enantiomer a) [Example 1(a), Trans-6-((4-(1-amino-2-(7-methoxy-2-oxo-1,5-naphthyridin-1(2H)-yl)ethyl)cyclohexylamino)methyl)-2H-pyrido[3,2-b][1,4]oxazin-3(4H)-one, enantiomer A] | 2 nM
COc1ccc2ncc(=O)n(CC(N)[C@H]3CC[C@H](NCc4ccc5c(n4)NC(=O)CO5)CC3)c2c1 (single isomer, unassigned; enantiomer a) [Example 2(a), Trans-6-((4-(1-amino-2-(7-methoxy-2-oxoquinoxalin-1(2H)-yl)ethyl)cyclohexylamino)methyl)-2H-pyrido[3,2-b][1,4]oxazin-3(4H)-one, enantiomer A] | 16 nM
COc1ccc2ncc(=O)n(CC(N)[C@H]3CC[C@H](NCc4ncc5c(n4)NC(=O)CO5)CC3)c2c1 (single isomer, unassigned; enantiomer a) [Example 3(a), Trans-2-((4-(1-amino-2-(7-methoxy-2-oxoquinoxalin-1(2H)-yl)ethyl)cyclohexylamino)methyl)-6H-pyrimido[5,4-b][1,4]oxazin-7(8H)-one, enantiomer A] | 16 nM
N#Cc1ccc2ccc(=O)n(CC(N)[C@H]3CC[C@H](NCc4ccc5c(n4)NC(=O)CO5)CC3)c2c1 (single isomer, unassigned; enantiomer a) [Example 4(a), Trans-1-(2-amino-2-(4-((3-oxo-3,4-dihydro-2H-pyrido[3,2-b][1,4]oxazin-6-yl)methylamino)cyclohexyl)ethyl)-2-oxo-1,2-dihydroquinoline-7-carbonitrile, enantiomer A] | 32 nM
NC(Cn1c(=O)ccc2ncc(Sc3ccccc3)cc21)C1CCC(NCc2ccc3c(n2)NC(=O)CO3)CC1 (single isomer, unassigned; enantiomer a) [Example 9, Trans-6-((4-(1-amino-2-(2-oxo-7-(phenylthio)-1,5-naphthyridin-1(2H)-yl)ethyl)cyclohexylamino)methyl)-2H-pyrido[3,2-b][1,4]oxazin-3(4H)-one, enantiomer A] | 6 nM
Cc1cc(=O)n(CC(N)C2CCC(NCc3ccc4c(n3)NC(=O)CO4)CC2)c2cc(F)ccc12 (single isomer, unassigned; enantiomer a) [Example 10, Trans-6-((4-(1-amino-2-(7-fluoro-4-methyl-2-oxoquinolin-1(2H)-yl)ethyl)cyclohexylamino)methyl)-2H-pyrido[3,2-b][1,4]oxazin-3(4H)-one, enantiomer A] | 9 nM
COc1cnc2ccc(=O)n(CC(N)[C@H]3CC[C@H](NCc4ccc5c(n4)NC(=O)CO5)CC3)c2c1 (single isomer, unassigned; enantiomer b) [Example 1(b), Trans-6-((4-(1-amino-2-(7-methoxy-2-oxo-1,5-naphthyridin-1(2H)-yl)ethyl)cyclohexylamino)methyl)-2H-pyrido[3,2-b][1,4]oxazin-3(4H)-one, enantiomer B] | 33 nM
COc1ccc2ncc(=O)n(CC(N)[C@H]3CC[C@H](NCc4ccc5c(n4)NC(=O)CO5)CC3)c2c1 (single isomer, unassigned; enantiomer b) [Example 2(b), Trans-6-((4-(1-amino-2-(7-methoxy-2-oxoquinoxalin-1(2H)-yl)ethyl)cyclohexylamino)methyl)-2H-pyrido[3,2-b][1,4]oxazin-3(4H)-one, enantiomer B] | 4 nM
COc1ccc2ncc(=O)n(CC(N)[C@H]3CC[C@H](NCc4ncc5c(n4)NC(=O)CO5)CC3)c2c1 (single isomer, unassigned; enantiomer b) [Example 3(b), Trans-2-((4-(1-amino-2-(7-methoxy-2-oxoquinoxalin-1(2H)-yl)ethyl)cyclohexylamino)methyl)-6H-pyrimido[5,4-b][1,4]oxazin-7(8H)-one, enantiomer B] | 3 nM
N#Cc1ccc2ccc(=O)n(CC(N)[C@H]3CC[C@H](NCc4ccc5c(n4)NC(=O)CO5)CC3)c2c1 (single isomer, unassigned; enantiomer b) [Example 4(b), Trans-1-(2-amino-2-(4-((3-oxo-3,4-dihydro-2H-pyrido[3,2-b][1,4]oxazin-6-yl)methylamino)cyclohexyl)ethyl)-2-oxo-1,2-dihydroquinoline-7-carbonitrile, enantiomer B] | 4 nM
N#Cc1ccc2ccc(=O)n(CC(N)[C@H]3CC[C@H](NCc4ccc5c(n4)NC(=O)CS5)CC3)c2c1 (single isomer, unassigned; enantiomer b) [Example 7(b), Trans-1-(2-amino-2-(4-((3-oxo-3,4-dihydro-2H-pyrido[3,2-b][1,4]thiazin-6-yl)methylamino)cyclohexyl)ethyl)-2-oxo-1,2-dihydroquinoline-7-carbonitrile, enantiomer B] | 2 nM

Source: patent publication US20110288084A1, “[4-( 1-AMINO-ETHYL) - CYCLOHEXYL ] - METHYL - AMINES AS ANTIBACTERIALS” (ASTRAZENECA AB, priority 2008, published 2011)
